Results taken from ChEMBL document CHEMBL3865802, “Natural product-inspired rational design, synthesis and biological evaluation of 2,3-dihydropyrano[2,3-f]chromen-4(8H)-one based hybrids as potential mitochondrial apoptosis inducers” (Eur J Med Chem, 2016).
Activity calls are given as the source filed them. The rule behind the calls is not given here.

Tested on: MCF7
Experiment: Induction of apoptosis in human MCF7 cells at antiproliferative IC50 assessed as late apoptotic cells after 48 hrs by AO/EB dual staining-based fluorescent microscopic analysis
Assay type: functional, cell-based
Conditions: not given

| SMILES | Activity |
| --- | --- |
| CC1Oc2c(cc(C(=O)Nc3ccncc3)c3c2C=CC(C)(C)O3)C(=O)C1C (configuration not stated) | Active |

Tested on: MCF7
Experiment: Induction of apoptosis in human MCF7 cells assessed as DNA fragmentation at antiproliferative IC50 after 24 hrs by ethidium bromide staining based agarose gel electrophoresis method
Assay type: functional, cell-based
Conditions: not given

| SMILES | Activity |
| --- | --- |
| CC1Oc2c(cc(C(=O)Nc3ccncc3)c3c2C=CC(C)(C)O3)C(=O)C1C (configuration not stated) | Active |

Tested on: MCF7
Experiment: Induction of apoptosis in human MCF7 cells assessed as chromatin condensation at antiproliferative IC50 after 24 hrs by hoechst 33258 staining-based fluorescent microscopic analysis
Assay type: functional, cell-based
Conditions: not given

| SMILES | Activity |
| --- | --- |
| CC1Oc2c(cc(C(=O)Nc3ccncc3)c3c2C=CC(C)(C)O3)C(=O)C1C (configuration not stated) | Active |

Tested on: not listed separately
Experiment: Cytotoxicity against human MCF7 cells assessed as cell growth inhibition after 24 hrs by MTT assay
Assay type: functional, cell-based
Conditions: MCF7, 24 h

| SMILES | IC50 |
| --- | --- |
| CC1Oc2c(cc(C(=O)Nc3ccncc3)c3c2C=CC(C)(C)O3)C(=O)C1C (configuration not stated) | 26.2 µM |

Tested on: not listed separately
Experiment: Downregulation of Bcl2 mRNA expression in human MCF7 cells assessed as Bcl2 mRNA expression level at antiproliferative IC50 after 48 hrs by RT-qPCR analysis relative to control
Assay type: functional, cell-based
Conditions: not given

| SMILES | Activity |
| --- | --- |
| CC1Oc2c(cc(C(=O)Nc3ccncc3)c3c2C=CC(C)(C)O3)C(=O)C1C (configuration not stated) | 57% |

Tested on: MCF7
Experiment: Induction of mitochondrial membrane potential loss in human MCF7 cells assessed as accumulation of cells at lower right quadrant at 26.2 uM after 48 hrs by JC-1 staining-based fluorescent microscopic analysis (reference value: 0.1 %)
Assay type: functional
Conditions: not given

| SMILES | Activity |
| --- | --- |
| CC1Oc2c(cc(C(=O)Nc3ccncc3)c3c2C=CC(C)(C)O3)C(=O)C1C (configuration not stated) | 20.2% |

Tested on: MCF7
Experiment: Induction of mitochondrial membrane potential depolarization in human MCF7 cells assessed as increase in green fluorescence at 26.2 uM after 24 to 48 hrs by JC-1 staining-based fluorescent microscopic analysis
Assay type: functional, cell-based
Conditions: not given

| SMILES | Activity |
| --- | --- |
| CC1Oc2c(cc(C(=O)Nc3ccncc3)c3c2C=CC(C)(C)O3)C(=O)C1C (configuration not stated) | Active |

Tested on: MCF7
Experiment: Induction of apoptosis in human MCF7 cells assessed as early apoptotic cells at antiproliferative IC50 after 24 hrs by AO/EB dual staining-based fluorescent microscopic analysis
Assay type: functional, cell-based
Conditions: not given

| SMILES | Activity |
| --- | --- |
| CC1Oc2c(cc(C(=O)Nc3ccncc3)c3c2C=CC(C)(C)O3)C(=O)C1C (configuration not stated) | Active |

Tested on: MCF7
Experiment: Induction of apoptosis in human MCF7 cells assessed as increase in number of abnormal cells at antiproliferative IC50 by hoechst 33258 staining-based fluorescent microscopic analysis
Assay type: functional, cell-based
Conditions: TDE = time-dependent effect

| SMILES | Activity |
| --- | --- |
| CC1Oc2c(cc(C(=O)Nc3ccncc3)c3c2C=CC(C)(C)O3)C(=O)C1C (configuration not stated) | Tde |

Tested on: not listed separately
Experiment: Downregulation of Bcl2 protein expression in human MCF7 cells at antiproliferative IC50 after 24 hrs by Western blot analysis
Assay type: functional, cell-based
Conditions: not given

| SMILES | Activity |
| --- | --- |
| CC1Oc2c(cc(C(=O)Nc3ccncc3)c3c2C=CC(C)(C)O3)C(=O)C1C (configuration not stated) | Active |

Tested on: not listed separately
Experiment: Cytotoxicity against human HeLa cells assessed as cell growth inhibition after 24 hrs by MTT assay
Assay type: functional, cell-based
Conditions: not given

| SMILES | IC50 |
| --- | --- |
| CC1Oc2c(cc(C(=O)Nc3ccncc3)c3c2C=CC(C)(C)O3)C(=O)C1C (configuration not stated) | 28.6 µM |

Tested on: MCF7
Experiment: Induction of apoptosis in human MCF7 cells assessed as cytoskeleton breakdown at antiproliferative IC50 after 48 hrs by hoechst 33258 staining-based fluorescent microscopic analysis
Assay type: functional, cell-based
Conditions: not given

| SMILES | Activity |
| --- | --- |
| CC1Oc2c(cc(C(=O)Nc3ccncc3)c3c2C=CC(C)(C)O3)C(=O)C1C (configuration not stated) | Active |

Tested on: not listed separately
Experiment: Hemolytic activity against human RBC at 26.2 uM after 4 hrs
Assay type: ADME, cell-based
Conditions: erythrocyte

| SMILES | Activity |
| --- | --- |
| CC1Oc2c(cc(C(=O)Nc3ccncc3)c3c2C=CC(C)(C)O3)C(=O)C1C (configuration not stated) | Non-Toxic |

Tested on: not listed separately
Experiment: Downregulation of Bcl2 mRNA expression in human MCF7 cells assessed as Bcl2 mRNA expression level at antiproliferative IC50 after 12 hrs by RT-qPCR analysis relative to control
Assay type: functional, cell-based
Conditions: not given

| SMILES | Activity |
| --- | --- |
| CC1Oc2c(cc(C(=O)Nc3ccncc3)c3c2C=CC(C)(C)O3)C(=O)C1C (configuration not stated) | 92.2% |

Tested on: not listed separately
Experiment: Downregulation of Bcl2 mRNA expression in human MCF7 cells assessed as Bcl2 mRNA expression level at antiproliferative IC50 after 24 hrs by RT-qPCR analysis relative to control
Assay type: functional, cell-based
Conditions: not given

| SMILES | Activity |
| --- | --- |
| CC1Oc2c(cc(C(=O)Nc3ccncc3)c3c2C=CC(C)(C)O3)C(=O)C1C (configuration not stated) | 64% |

Tested on: MCF7
Experiment: Induction of mitochondrial membrane potential loss in human MCF7 cells assessed as accumulation of cells at upper right quadrant at 26.2 uM after 48 hrs by JC-1 staining-based fluorescent microscopic analysis (reference value: 0.2 %)
Assay type: functional
Conditions: not given

| SMILES | Activity |
| --- | --- |
| CC1Oc2c(cc(C(=O)Nc3ccncc3)c3c2C=CC(C)(C)O3)C(=O)C1C (configuration not stated) | 79.8% |

Tested on: not listed separately
Experiment: Upregulation of Bax protein expression in human MCF7 cells at antiproliferative IC50 after 24 hrs by Western blot analysis
Assay type: functional, cell-based
Conditions: not given

| SMILES | Activity |
| --- | --- |
| CC1Oc2c(cc(C(=O)Nc3ccncc3)c3c2C=CC(C)(C)O3)C(=O)C1C (configuration not stated) | Active |

Tested on: MCF7
Experiment: Induction of apoptosis in human MCF7 cells assessed as morphological changes at antiproliferative IC50 by AO/EB dual staining-based fluorescent microscopic analysis
Assay type: functional, cell-based
Conditions: TDE = time-dependent effect

| SMILES | Activity |
| --- | --- |
| CC1Oc2c(cc(C(=O)Nc3ccncc3)c3c2C=CC(C)(C)O3)C(=O)C1C (configuration not stated) | Tde |

Tested on: MCF7
Experiment: Induction of apoptosis in human MCF7 cells assessed as fragmented nuclei at antiproliferative IC50 after 24 hrs by hoechst 33258 staining-based fluorescent microscopic analysis
Assay type: functional, cell-based
Conditions: not given

| SMILES | Activity |
| --- | --- |
| CC1Oc2c(cc(C(=O)Nc3ccncc3)c3c2C=CC(C)(C)O3)C(=O)C1C (configuration not stated) | Active |

Tested on: MCF7
Experiment: Induction of apoptosis in human MCF7 cells assessed as presence of apoptotic bodies at antiproliferative IC50 after 24 hrs by hoechst 33258 staining-based fluorescent microscopic analysis
Assay type: functional, cell-based
Conditions: not given

| SMILES | Activity |
| --- | --- |
| CC1Oc2c(cc(C(=O)Nc3ccncc3)c3c2C=CC(C)(C)O3)C(=O)C1C (configuration not stated) | Active |

Tested on: MCF7
Experiment: Induction of apoptosis in human MCF7 cells assessed as plasma membrane blebbing at antiproliferative IC50 after 48 hrs by hoechst 33258 staining-based fluorescent microscopic analysis
Assay type: functional, cell-based
Conditions: not given

| SMILES | Activity |
| --- | --- |
| CC1Oc2c(cc(C(=O)Nc3ccncc3)c3c2C=CC(C)(C)O3)C(=O)C1C (configuration not stated) | Active |

Tested on: not listed separately
Experiment: Cytotoxicity against human A549 cells assessed as cell growth inhibition after 24 hrs by MTT assay
Assay type: functional, cell-based
Conditions: A549, 24 h

| SMILES | IC50 |
| --- | --- |
| CC1Oc2c(cc(C(=O)Nc3ccncc3)c3c2C=CC(C)(C)O3)C(=O)C1C (configuration not stated) | 39.3 µM |
